{"source": "patent US10613180B2", "about": "“Methods and systems of assessing tissue vascular permeability using non-labeled dextran” (priority 2014, dated 2020)", "key": {"[1]": {"test_system": "CT26 colon tumors", "assay": "In vivo CEST MRI of 150 kD dextran uptake before and after TNF-α", "parameters": "species or system mice", "conditions": "TNF-α 1 μg per mouse, one hour after 150 kD dextran", "method": "For dextran of 150 kD, a slightly different protocol was used (FIG. 3a). […] One hour later, TNF-α (1 μg per mouse) was injected. The CEST MRI was acquired using a series of z spectral imaging acquisition (from −3 ppm to +3 ppm, step=0.2 ppm). Each acquisition took ˜16 minutes. For all the studies, a fat-suppressed RARE sequence with a continuous wave pre-saturation pulse B1=1.8 μT and 3 seconds (TR/TE=5000/5 ms, RARE factor=10)^2 was used. Data were processed using custom-written MATLAB scripts. After correcting for B0 inhomogeneity using the WASSR method, the in vivo CEST contrast was quantified by averaging the MTRasym=(S^−Δω−S^+Δω)/S0 from 0.8 to 1.2 ppm.^2"}, "[2]": {"test_system": "tumor", "assay": "In vivo and ex vivo fluorescence imaging and immunohistochemistry with dextran-FITC", "parameters": "species or system mice", "conditions": "after TNF-α", "source_text": "The changes of mean ROI CEST contrast of tumor and kidney are plotted on the right. […] The dextran can be also imaged by its conjugated fluorescein (FITC)."}}, "data": [{"substance": "TNF-α", "values": [{"measurement": "effect of TNF-α on dextran accumulation in tumor and kidney", "setting": "[1]", "value": "increased vascular permeability"}, {"measurement": "dextran uptake in tumors by fluorescence imaging and immunohistochemistry", "setting": "[2]", "value": "marked increased dextran uptake in tumors"}]}]}
